Measured values as given in US9446039B2, “Aminoheteroaryl compounds as MTH1 inhibitors” (CEMM—FORSCHUNGSZENTRUM FÜR MOLEKULARE MEDIZIN GMBH, priority 2012, dated 2016).

Legend:
Format in all cases: binding
[1] = molecular target: T1, SW480 colon carcinoma cells lysate proteins (Homo sapiens, UniProt B2RPK0); details: PreyGene HMGB1P1
T1 sequence (B2RPK0 1-211): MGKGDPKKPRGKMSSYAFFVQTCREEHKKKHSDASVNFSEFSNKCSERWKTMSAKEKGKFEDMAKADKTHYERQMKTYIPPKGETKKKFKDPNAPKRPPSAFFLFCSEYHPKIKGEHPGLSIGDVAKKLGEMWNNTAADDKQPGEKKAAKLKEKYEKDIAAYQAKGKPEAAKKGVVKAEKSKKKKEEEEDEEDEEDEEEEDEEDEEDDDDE

[2] = molecular target: T2, SW480 colon carcinoma cells lysate proteins (Homo sapiens, UniProt Q9H9Z2); details: PreyGene LIN28A
T2 sequence (Q9H9Z2 1-209): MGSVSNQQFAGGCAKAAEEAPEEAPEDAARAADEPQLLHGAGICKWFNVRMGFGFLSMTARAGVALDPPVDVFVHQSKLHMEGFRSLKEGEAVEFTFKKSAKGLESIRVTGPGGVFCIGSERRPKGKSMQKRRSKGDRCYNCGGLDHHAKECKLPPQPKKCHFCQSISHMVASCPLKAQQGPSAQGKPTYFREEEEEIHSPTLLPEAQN

[3] = molecular target: T3, SW480 colon carcinoma cells lysate proteins (Homo sapiens, UniProt Q15293); details: PreyGene RCN1
T3 sequence (Q15293 30-331): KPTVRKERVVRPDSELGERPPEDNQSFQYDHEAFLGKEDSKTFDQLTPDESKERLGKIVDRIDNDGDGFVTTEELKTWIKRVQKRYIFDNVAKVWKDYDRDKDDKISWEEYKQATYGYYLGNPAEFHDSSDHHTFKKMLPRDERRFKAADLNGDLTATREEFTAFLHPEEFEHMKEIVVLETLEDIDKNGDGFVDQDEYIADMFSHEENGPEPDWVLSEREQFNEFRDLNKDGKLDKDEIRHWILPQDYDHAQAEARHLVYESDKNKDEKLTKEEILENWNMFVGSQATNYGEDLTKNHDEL

[4] = molecular target: T4, SW480 colon carcinoma cells lysate proteins (Homo sapiens, UniProt P00558); details: PreyGene PGK1
T4 sequence (P00558 1-417): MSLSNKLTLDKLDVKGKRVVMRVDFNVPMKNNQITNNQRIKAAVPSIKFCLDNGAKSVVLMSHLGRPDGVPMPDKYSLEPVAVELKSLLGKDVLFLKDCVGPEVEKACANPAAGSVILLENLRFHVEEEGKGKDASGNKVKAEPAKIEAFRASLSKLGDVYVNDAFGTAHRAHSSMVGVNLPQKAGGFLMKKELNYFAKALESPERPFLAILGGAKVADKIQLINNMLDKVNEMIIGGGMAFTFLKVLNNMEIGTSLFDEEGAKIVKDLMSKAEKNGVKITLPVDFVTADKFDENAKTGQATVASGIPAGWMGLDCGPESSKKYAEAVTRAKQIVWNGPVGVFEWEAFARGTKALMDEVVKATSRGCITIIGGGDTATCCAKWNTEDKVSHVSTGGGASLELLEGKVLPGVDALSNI

[5] = molecular target: SW480 colon carcinoma cells lysate proteins (Homo sapiens, UniProt Q14315); details: PreyGene FLNC; SW480 cells
[6] = molecular target: SW480 colon carcinoma cells lysate proteins (Homo sapiens, UniProt P49591); details: PreyGene SARS
[7] = molecular target: T5, SW480 colon carcinoma cells lysate proteins (Homo sapiens, UniProt Q16543); details: PreyGene CDC37
T5 sequence (Q16543 1-378): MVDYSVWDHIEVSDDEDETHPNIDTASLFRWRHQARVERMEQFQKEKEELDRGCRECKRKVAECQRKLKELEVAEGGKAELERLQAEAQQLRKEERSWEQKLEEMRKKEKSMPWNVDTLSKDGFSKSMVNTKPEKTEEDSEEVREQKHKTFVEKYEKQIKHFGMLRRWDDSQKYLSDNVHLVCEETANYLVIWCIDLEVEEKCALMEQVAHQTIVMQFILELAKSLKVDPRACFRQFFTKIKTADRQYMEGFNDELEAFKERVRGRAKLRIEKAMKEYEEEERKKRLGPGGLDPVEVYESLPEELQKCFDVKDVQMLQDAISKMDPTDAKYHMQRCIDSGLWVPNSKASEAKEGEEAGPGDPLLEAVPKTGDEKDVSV

[8] = molecular target: T6, SW480 colon carcinoma cells lysate proteins (Homo sapiens, UniProt Q13442); details: PreyGene PDAP1; SW480 cells
T6 sequence (Q13442 1-181): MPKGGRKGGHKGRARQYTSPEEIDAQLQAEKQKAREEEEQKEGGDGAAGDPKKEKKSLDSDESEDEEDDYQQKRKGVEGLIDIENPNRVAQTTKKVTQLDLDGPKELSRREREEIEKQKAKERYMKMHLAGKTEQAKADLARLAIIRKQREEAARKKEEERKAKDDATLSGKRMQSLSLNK

Sequence of SW480 colon carcinoma cells lysate proteins (Homo sapiens, UniProt P49591) (P49591 whole entry, looked up): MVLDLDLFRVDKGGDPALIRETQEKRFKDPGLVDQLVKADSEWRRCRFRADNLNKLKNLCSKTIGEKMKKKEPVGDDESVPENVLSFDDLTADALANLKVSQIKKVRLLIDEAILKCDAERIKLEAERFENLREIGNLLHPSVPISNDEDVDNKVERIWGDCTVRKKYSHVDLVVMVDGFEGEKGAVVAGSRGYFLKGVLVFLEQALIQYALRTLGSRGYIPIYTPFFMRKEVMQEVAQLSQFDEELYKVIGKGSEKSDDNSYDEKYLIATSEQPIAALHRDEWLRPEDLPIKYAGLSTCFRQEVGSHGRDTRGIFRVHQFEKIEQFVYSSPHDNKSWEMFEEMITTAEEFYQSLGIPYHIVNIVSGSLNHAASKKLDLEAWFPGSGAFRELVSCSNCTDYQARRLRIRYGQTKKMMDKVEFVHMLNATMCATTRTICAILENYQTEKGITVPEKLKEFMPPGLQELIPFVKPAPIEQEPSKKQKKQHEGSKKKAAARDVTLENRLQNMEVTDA
Sequence of SW480 colon carcinoma cells lysate proteins (Homo sapiens, UniProt Q14315) (Q14315 whole entry): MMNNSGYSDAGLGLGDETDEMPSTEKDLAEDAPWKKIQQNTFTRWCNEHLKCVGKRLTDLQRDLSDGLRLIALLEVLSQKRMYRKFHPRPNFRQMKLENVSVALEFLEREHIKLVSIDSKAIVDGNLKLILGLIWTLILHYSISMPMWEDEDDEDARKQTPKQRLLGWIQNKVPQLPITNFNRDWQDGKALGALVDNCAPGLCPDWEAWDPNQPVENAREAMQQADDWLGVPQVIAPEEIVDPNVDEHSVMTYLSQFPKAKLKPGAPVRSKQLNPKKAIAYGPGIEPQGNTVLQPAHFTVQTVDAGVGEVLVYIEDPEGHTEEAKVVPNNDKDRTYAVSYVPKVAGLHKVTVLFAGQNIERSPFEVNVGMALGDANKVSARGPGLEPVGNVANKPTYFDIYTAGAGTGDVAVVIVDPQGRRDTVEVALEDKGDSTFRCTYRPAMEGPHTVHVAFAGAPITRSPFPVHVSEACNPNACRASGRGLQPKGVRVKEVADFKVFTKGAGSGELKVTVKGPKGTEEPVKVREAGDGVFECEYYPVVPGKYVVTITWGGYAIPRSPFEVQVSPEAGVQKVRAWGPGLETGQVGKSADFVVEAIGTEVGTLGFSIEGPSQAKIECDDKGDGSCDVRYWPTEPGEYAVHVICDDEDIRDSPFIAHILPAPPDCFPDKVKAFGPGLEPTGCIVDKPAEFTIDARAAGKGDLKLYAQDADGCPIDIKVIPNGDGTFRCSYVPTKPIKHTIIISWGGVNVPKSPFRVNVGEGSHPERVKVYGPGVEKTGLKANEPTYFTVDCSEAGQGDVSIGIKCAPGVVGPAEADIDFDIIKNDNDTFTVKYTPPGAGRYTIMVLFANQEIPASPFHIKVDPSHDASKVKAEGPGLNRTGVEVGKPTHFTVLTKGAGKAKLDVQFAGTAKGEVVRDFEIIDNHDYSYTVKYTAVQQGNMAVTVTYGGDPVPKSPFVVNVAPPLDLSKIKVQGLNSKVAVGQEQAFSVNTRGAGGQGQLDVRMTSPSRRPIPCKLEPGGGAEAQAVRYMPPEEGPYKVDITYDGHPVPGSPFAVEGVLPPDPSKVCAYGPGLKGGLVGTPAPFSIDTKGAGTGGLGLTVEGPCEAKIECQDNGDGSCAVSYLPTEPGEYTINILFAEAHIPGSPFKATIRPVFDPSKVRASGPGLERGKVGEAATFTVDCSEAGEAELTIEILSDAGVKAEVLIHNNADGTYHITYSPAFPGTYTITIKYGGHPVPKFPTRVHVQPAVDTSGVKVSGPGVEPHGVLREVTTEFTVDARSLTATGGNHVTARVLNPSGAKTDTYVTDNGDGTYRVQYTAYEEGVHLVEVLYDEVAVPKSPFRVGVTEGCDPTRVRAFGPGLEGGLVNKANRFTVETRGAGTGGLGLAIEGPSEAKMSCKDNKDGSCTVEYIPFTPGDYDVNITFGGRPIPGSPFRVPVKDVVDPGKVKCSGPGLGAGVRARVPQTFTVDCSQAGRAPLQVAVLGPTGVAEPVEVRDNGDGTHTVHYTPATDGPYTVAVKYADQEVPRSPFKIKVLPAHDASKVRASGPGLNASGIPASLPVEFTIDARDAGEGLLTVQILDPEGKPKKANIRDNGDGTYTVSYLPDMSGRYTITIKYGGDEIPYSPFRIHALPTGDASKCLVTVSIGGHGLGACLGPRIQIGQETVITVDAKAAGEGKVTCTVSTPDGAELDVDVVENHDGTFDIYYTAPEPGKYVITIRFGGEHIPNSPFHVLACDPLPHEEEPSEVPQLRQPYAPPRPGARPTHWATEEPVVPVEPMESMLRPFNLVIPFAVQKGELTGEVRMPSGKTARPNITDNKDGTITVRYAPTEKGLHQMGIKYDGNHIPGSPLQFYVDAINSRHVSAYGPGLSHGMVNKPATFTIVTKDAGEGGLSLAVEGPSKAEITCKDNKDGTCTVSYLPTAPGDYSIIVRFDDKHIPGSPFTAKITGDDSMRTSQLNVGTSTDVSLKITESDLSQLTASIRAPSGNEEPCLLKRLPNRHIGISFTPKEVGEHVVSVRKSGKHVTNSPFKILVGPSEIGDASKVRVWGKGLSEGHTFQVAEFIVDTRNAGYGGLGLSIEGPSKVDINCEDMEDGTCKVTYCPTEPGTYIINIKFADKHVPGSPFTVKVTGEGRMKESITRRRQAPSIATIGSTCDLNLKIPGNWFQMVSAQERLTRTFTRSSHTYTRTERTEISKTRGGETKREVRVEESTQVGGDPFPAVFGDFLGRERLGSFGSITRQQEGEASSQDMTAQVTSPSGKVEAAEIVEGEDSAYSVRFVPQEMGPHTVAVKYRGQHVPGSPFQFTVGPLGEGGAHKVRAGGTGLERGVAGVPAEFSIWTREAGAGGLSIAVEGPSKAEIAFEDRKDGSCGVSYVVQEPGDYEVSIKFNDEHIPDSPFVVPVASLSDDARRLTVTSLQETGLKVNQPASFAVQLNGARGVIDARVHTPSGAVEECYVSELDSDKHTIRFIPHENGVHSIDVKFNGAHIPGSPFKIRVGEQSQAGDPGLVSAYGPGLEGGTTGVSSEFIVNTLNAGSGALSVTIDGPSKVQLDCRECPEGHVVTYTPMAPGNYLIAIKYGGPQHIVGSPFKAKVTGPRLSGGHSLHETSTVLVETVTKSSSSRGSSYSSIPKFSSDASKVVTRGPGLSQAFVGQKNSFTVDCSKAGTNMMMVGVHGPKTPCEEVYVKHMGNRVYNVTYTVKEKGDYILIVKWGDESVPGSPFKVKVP

Structure (SMILES): C[C@H](Oc1cc(-c2cnn(C3CCNCC3)c2)cnc1N)c1c(Cl)ccc(F)c1Cl [(5)-crizotinib]
- AvgP [1]: 0.3829
- SC.Exp. 1-1 [1]: 2
- SC.Exp. 1-2 [1]: 2
- SC.Exp. 2-1 [1]: 0
- SC.Exp. 2-2 [1]: 0
- Sum (SC.Exp.) [1]: 4
- AvgP [2]: 0.3021
- SC.Exp. 1-1 [2]: 2
- SC.Exp. 1-2 [2]: 2
- SC.Exp. 2-1 [2]: 2
- SC.Exp. 2-2 [2]: 0
- Sum (SC.Exp.) [2]: 6
- AvgP [3]: 0.4191
- SC.Exp. 1-1 [3]: 4
- SC.Exp. 1-2 [3]: 4
- SC.Exp. 2-1 [3]: 0
- SC.Exp. 2-2 [3]: 0
- Sum (SC.Exp.) [3]: 8
- AvgP [4]: 0.2466
- SC.Exp. 1-1 [4]: 14
- SC.Exp. 1-2 [4]: 12
- SC.Exp. 2-1 [4]: 0
- SC.Exp. 2-2 [4]: 0
- Sum (SC.Exp.) [4]: 26
- AvgP [5]: 0
- SC.Exp. 1-1 [5]: 0
- SC.Exp. 1-2 [5]: 0
- SC.Exp. 2-1 [5]: 0
- SC.Exp. 2-2 [5]: 1
- SC.Exp. Sum [5]: 1
- AvgP [6]: 0.4649
- SC.Exp. 1-1 [6]: 4
- SC.Exp. 1-2 [6]: 4
- SC.Exp. 2-1 [6]: 0
- SC.Exp. 2-2 [6]: 0
- Sum (SC.Exp.) [6]: 8
- AvgP [7]: 0.4343
- SC.Exp. 1-1 [7]: 3
- SC.Exp. 1-2 [7]: 3
- SC.Exp. 2-1 [7]: 0
- SC.Exp. 2-2 [7]: 0
- Sum (SC.Exp.) [7]: 6
- AvgP [8]: 0
- SC.Exp. 1-1 [8]: 1
- SC.Exp. 1-2 [8]: 1
- SC.Exp. 2-1 [8]: 0
- SC.Exp. 2-2 [8]: 0
- SC.Exp. Sum [8]: 2
